Assay results as given in patent publication US20250313879A1, “Fluorescent Probe for Detecting Peptide Bond Hydrolase” (The University of Tokyo, priority 2022, published 2025).
In brackets after ≈: the same amount, converted by molar mass.

How the values were obtained:
aminopeptidase A [1] = molecular target: T1, aminopeptidase A (Homo sapiens, UniProt Q07075); experiment: Signal/noise ratio of enzymolysate in microdevice; type: biochemical
Method: (§1) For two types of compounds Glu-sSiR (PB206/Example 12) and GP-sHMRG (PB109/Example 7), the signal/noise ratios of the enzymolysates before and after the enzyme reaction in the cuvette and the microdevice were each measured as follows. In the following experiments, the composition of the assay buffer is 100 mM HEPES-NaOH (pH 7.4), 1 mM MgCl2, 1 mM CaCl2), […].
For Glu-sSiR, three kinds of solutions of (i) only an assay buffer, (ii) 30 μM of Glu-sSiR, and (iii) 30 μM of Glu-sSiR and 0.2 ng/mL of aminopeptidase A were prepared, and each solution was added to a microdevice, followed by the addition of sealing oil to enclose the solution in each well. The microdevice in which the solution was enclosed was incubated at 37° C. for 4 hours, and then the fluorescence intensity of each well was measured with a fluorescence microscope. When a difference between the average values of the fluorescence intensities of the respective wells in (ii) and (i) was defined as noise, a difference between the average value of the fluorescence intensities of the wells in which the enzyme was encapsulated in (iii) and the average value of the fluorescence intensities of the respective wells in (i) was defined as a signal, and a ratio of these values was calculated as the signal/noise ratio of the enzymolysate, the ratio was 8.3 times (see FIG. 8, panel A). […]

aminopeptidase A [2] = molecular target: T1, aminopeptidase A; experiment: Signal/noise ratio of enzymolysate in cuvette; type: biochemical; conditions: 10 μM probe, 170 ng/mL aminopeptidase A, 25° C. 11 hours, @616 nm
Method: as §1
Glu-sSiR was diluted with an assay buffer so as to be 10 μM, then added to a quartz cuvette, and the fluorescence spectrum before the enzyme reaction was measured with a fluorometer (excitation wavelength: 570 nm). Thereafter, aminopeptidase A was added so that the concentration in the solution was 170 ng/mL, the solution was incubated at 25° C. for 11 hours, and then the fluorescence spectrum was measured. The fluorescence spectra before and after the enzyme reaction were compared, the ratio of the values at a wavelength at which the fluorescence intensity was maximized was calculated as the signal/noise ratio of the enzymolysate, the ratio was 32 times (@616 nm) (see FIG. 7A).

[3] = tested on: aminopeptidase activity in human plasma sample; experiment: Enzyme activity assay in microdevice with human plasma, aminopeptidase probes; type: biochemical; conditions: 50 μM probe, 37° C. for 2 hours
Method: • 1. Ala-sHMRG as a fluorescent probe for detecting aminopeptidase activity was diluted with an assay buffer to 100 μM. The composition of the assay buffer is 100 mM HEPES-NaOH (pH 7.4), 1 mM MgCl2, 0.1% BSA, 1 mM DTT, 1 mM Triton X-100, • 2. Next, a human plasma sample was diluted by 500 times with the above assay buffer, and mixed in an equal amount with the diluted solution of the probe. At this time, the final concentrations of both are 50 μM for Ala-sHMRG and 1,000 fold dilution for the human plasma sample. • 3. The mixed solution of both was then added to a microdevice, followed by the addition of sealing oil to enclose the solution in each well. • 4. The microdevice in which the solution was enclosed was incubated at 37° C. for 4 hours, and then the fluorescence intensity of each well was measured with a fluorescence microscope.
• 1. Leu-sHMRG as a fluorescent probe for detecting aminopeptidase activity was diluted with an assay buffer to 100 μM. The composition of the assay buffer is 100 mM HEPES-NaOH (pH 7.4), 1 mM MgCl2, 1 mM DTT, 3 mM Triton X-100. • 2. Next, a human plasma sample was diluted by 2,500 times with the above assay buffer, and mixed in an equal amount with the diluted solution of the probe. At this time, the final concentrations of both are 50 μM for Leu-sHMRG and 5,000 fold dilution for the human plasma sample. • 3. The mixed solution of both was then added to a microdevice, followed by the addition of sealing oil to enclose the solution in each well. • 4. The microdevice in which the solution was enclosed was incubated at 37° C. for 4 hours, and then the fluorescence intensity of each well was measured with a fluorescence microscope.
(§2) • 5. Met-sHMRG as a fluorescent probe for detecting aminopeptidase activity was diluted with an assay buffer to 100 μM. The composition of the assay buffer is 100 mM HEPES-NaOH (pH 7.4), 1 mM MgCl2, 1 mM CaCl2, 1 mM DTT, 3 mM Triton X-100. • 6. Next, a human plasma sample was diluted by 500 times with the above assay buffer, and mixed in an equal amount with the diluted solution of the probe. At this time, the final concentrations of both are 50 μM for Met-sHMRG and 1,000 fold dilution for the human plasma sample. • 7. The mixed solution of both was then added to a microdevice, followed by the addition of sealing oil to enclose the solution in each well. • 8. The microdevice in which the solution was enclosed was incubated at 37° C. for 2 hours, and then the fluorescence intensity of each well was measured with a fluorescence microscope.
as §2, with “• 9. Tyr-sHMRG” for “• 5. Met-sHMRG”, “• 10.” for “• 6.”, “for Tyr-sHMRG” for “for Met-sHMRG”, “• 11.” for “• 7.”, “• 12.” for “• 8.”, “for 4” for “for 2”
• 1. Lys-sHMRG as a fluorescent probe for detecting aminopeptidase activity was diluted with an assay buffer to 100 μM. The composition of the assay buffer is 100 mM HEPES-NaOH (pH 7.4), 1 mM MgCl2, 1 mM CaCl2, 1 mM DTT, 3 mM Triton X-100. • 2. Next, a human plasma sample was diluted by 10,000 times with the above assay buffer, and mixed in an equal amount with the diluted solution of the probe. At this time, the final concentrations of both are 50 μM for Lys-sHMRG and 20,000 fold dilution for the human plasma sample. • 3. […]

[4] = Solubility in sealing oil (hexadecane); type: physicochemical; conditions: oil or lipid, kinetic from dmso stock, room temperature (25° C.), three tests, average value±standard deviation
Method: That is, 1 μL of a 10 mM DMSO solution of the test compound was added with respect to 100 μL of hexadecane as sealing oil, and the mixture was sonicated and suspended at room temperature (25° C.) for 1 minute. Thereafter, the solution was centrifuged for 30 seconds, 50 μL of the supernatant was collected and mixed with 100 μL of methanol, and a compound dissolved in hexadecane was extracted. Thereafter, the methanol solution from which the compound was extracted was analyzed by ultra performance liquid chromatography (UPLC) (eluent: A/B=95/5>5/95, A: 0.1% formic acid-containing 100% H2O, B: 0.1% formic acid-containing 100% CH3CN), and the concentration of the compound in the methanol solution was calculated from the peak area. In the calculation of the solution concentration using the UPLC peak area, solutions having a plurality of concentrations were prepared and measured for each compound, then a calibration curve was prepared (FIG. 5), and the calculation was performed according to the calibration curve.

CD13 = experiment: Diagnostic experiment of pancreatic cancer utilizing single-molecule enzyme activity of CD13; type: biochemical, human; conditions: patients with pancreatic cancer compared with healthy subjects; 50 μM probe, plasma 20,000 fold dilution, 37° C. 2 hours
Method: In order to detect the single-molecule enzyme activity of CD13, an experiment to verify the availability of a probe to which […] is bonded as a reaction point (in General Formula (I) or (II), an alanine residue was introduced as —CO—R0 or —CO—R^10) to detect a pancreatic cancer biomarker was performed in the following procedures. • 1. Ala-sSiR as a CD13 detecting probe was diluted with an assay buffer to 100 μM. The composition of the assay buffer is 100 mM HEPES-NaOH (pH 7.4), 1 mM MgCl2, 1 mM CaCl2), 1 mM DTT, 3 mM Triton X-100. • 2. Next, human plasma samples collected from 30 patients with pancreatic cancer and 30 healthy subjects were each diluted by 10,000 times with the above assay buffer, and mixed in an equal amount with the diluted solution of Ala-sSiR. […] The microdevice in which the solution was enclosed was incubated at 37° C. for 2 hours, and then the fluorescence intensity of each well was measured with a fluorescence microscope.
Specifically, in this example, an ROC curve for determination based on the enzyme activity of CD13 determined based on the proportion of wells with a luminance of 2500 AU or more is created, and when a threshold is subtracted at the time when the number of wells of a signal is 3%, the sensitivity is 27% and the specificity is 100% (the right view of FIG. 3). […]

T1 sequence (Q07075 whole entry, species assumed): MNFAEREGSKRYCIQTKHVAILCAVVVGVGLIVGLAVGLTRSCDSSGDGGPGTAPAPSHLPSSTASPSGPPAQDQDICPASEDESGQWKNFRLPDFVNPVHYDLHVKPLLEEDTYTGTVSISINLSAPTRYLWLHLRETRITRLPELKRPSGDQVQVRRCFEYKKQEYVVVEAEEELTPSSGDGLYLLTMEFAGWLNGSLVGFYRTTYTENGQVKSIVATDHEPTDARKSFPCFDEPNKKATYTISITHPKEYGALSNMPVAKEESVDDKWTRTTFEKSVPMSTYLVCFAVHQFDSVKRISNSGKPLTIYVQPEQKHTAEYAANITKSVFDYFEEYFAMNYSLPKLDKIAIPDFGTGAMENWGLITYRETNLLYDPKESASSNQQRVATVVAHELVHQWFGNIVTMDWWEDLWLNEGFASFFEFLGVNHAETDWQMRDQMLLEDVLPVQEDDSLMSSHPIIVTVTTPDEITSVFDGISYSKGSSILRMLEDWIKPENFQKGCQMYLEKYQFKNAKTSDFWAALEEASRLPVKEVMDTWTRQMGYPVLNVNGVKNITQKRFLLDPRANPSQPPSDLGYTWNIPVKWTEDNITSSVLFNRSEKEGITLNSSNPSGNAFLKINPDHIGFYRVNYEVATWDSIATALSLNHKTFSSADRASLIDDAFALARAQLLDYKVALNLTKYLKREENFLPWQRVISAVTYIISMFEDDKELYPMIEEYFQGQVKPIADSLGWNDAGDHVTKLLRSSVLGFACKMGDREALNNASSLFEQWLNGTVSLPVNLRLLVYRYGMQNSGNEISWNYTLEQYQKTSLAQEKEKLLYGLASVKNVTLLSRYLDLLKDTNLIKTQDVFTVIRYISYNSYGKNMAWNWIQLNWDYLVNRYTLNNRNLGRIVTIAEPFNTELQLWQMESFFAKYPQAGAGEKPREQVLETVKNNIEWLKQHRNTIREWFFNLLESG

Cc1ccc(S(=O)(=O)O)cc1C1=C2C=CC(=N)C=C2[Si](C)(C)c2cc(NC(=O)[C@@H](N)CCC(=O)O)ccc21 [Glu-sSiR]
ratio of the signal/noise ratio in the microdevice to the signal/noise ratio in the cuvette (aminopeptidase A [1]; aminopeptidase A): 0.26
signal/noise ratio of the enzymolysate (aminopeptidase A [1]; microdevice, 30 μM probe, 0.2 ng/mL aminopeptidase A, 37° C. 4 hours): 8.3 times
signal/noise ratio of the enzymolysate (aminopeptidase A [2]): 32 times
fluorescence intensity of wells in which the reacting enzyme was enclosed ([3]; human plasma 1,000 fold dilution): increase in fluorescence intensity was observed
solubility at 1 min [4]: 0.3 ± 0.096 µM (≈ 0.166 µg/mL)

Cc1ccc(S(=O)(=O)O)cc1C1=C2C=CC(=N)C=C2[Si](C)(C)c2cc(NC(=O)[C@H](C)N)ccc21 [Ala-sSiR]
fluorescence intensity of wells in which the reacting enzyme was enclosed ([3]; human plasma 20,000 fold dilution): increase in fluorescence intensity was observed
number of wells in which the luminance is 2,500 AU or more (CD13 considered enclosed) (CD13): significant increase
